pIC50: −log10 of the molar value. Like-named read-outs stand apart in the source and are kept apart here. Values belong to the molecule of their own block, whether it stands above or below them.
What was measured:
PDE10A [1] = details: cited from earlier work
[2] = cited from earlier work
PDE10A [3] = target: PDE10A (Rattus norvegicus, UniProt Q9QYJ6); details: by 30 min p.i.
Biodistribution in rats = format: in vivo, male Sprague-Dawley rats; details: rat; for blood uptake / bone uptake / brain uptake / fat uptake / kidney uptake / liver uptake / muscle uptake: iv, mean ± SD, n = 4
PDE10A [4] = system: PDE10A

PDE10A (Rattus norvegicus, UniProt Q9QYJ6), sequence (Q9QYJ6 whole entry): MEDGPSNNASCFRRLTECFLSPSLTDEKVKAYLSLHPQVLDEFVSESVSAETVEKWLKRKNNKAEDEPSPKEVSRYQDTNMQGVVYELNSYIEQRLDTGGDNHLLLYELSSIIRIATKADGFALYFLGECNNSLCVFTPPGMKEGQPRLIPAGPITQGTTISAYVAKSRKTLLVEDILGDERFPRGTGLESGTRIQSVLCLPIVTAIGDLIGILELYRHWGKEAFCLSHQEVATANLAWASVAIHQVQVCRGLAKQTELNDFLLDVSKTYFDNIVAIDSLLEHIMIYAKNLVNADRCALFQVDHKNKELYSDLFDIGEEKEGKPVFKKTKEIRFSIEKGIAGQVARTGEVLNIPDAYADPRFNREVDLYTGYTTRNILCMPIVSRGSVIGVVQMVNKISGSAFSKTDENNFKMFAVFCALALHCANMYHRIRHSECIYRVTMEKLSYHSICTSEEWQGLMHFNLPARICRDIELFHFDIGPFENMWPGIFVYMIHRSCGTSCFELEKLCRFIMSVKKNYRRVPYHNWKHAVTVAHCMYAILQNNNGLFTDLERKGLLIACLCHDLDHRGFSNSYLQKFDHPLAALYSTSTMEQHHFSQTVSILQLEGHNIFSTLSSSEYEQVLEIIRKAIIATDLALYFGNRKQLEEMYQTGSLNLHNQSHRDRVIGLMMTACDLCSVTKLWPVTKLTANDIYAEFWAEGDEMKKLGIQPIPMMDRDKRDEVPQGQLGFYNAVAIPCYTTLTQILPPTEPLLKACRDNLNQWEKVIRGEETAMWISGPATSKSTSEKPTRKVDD

Structure (SMILES): Cn1cc(-c2ccncc2)c(-c2ccc(OCc3ccc4ccccc4n3)cc2)n1 [[^11C]MP-10]
brain uptake ([2]; 5 min p.i.): 0.162 ± 0.025 %ID/g | brain uptake ([2]; 30 min p.i.): 0.066 ± 0.008 %ID/g | brain uptake ([2]; 60 min p.i.): […]

ratio of activity in the striatum versus nontarget brain regions (PDE10A [3]): > 2 fold | blood uptake (Biodistribution in rats; 5 min p.i.): 0.343 ± 0.061 %ID/g | bone uptake (Biodistribution in rats; 5 min p.i.): 0.182 ± 0.003 %ID/g | brain uptake (Biodistribution in rats; 5 min p.i.): 0.092 ± 0.011 %ID/g | fat uptake (Biodistribution in rats; 5 min p.i.): 0.119 ± 0.021 %ID/g | kidney uptake (Biodistribution in rats; 5 min p.i.): 1.789 ± 0.332 %ID/g | liver uptake (Biodistribution in rats; 5 min p.i.): 4.24 ± 0.74 %ID/g | muscle uptake (Biodistribution in rats; 5 min p.i.): 0.166 ± 0.017 %ID/g | blood uptake (Biodistribution in rats; 30 min p.i.): 0.306 ± 0.016 %ID/g | bone uptake (Biodistribution in rats; 30 min p.i.): 0.144 ± 0.006 %ID/g | brain uptake (Biodistribution in rats; 30 min p.i.): 0.129 ± 0.005 %ID/g | fat uptake (Biodistribution in rats; 30 min p.i.): 0.202 ± 0.023 %ID/g | kidney uptake (Biodistribution in rats; 30 min p.i.): 1.022 ± 0.103 %ID/g | liver uptake (Biodistribution in rats; 30 min p.i.): 3.17 ± 0.55 %ID/g | muscle uptake (Biodistribution in rats; 30 min p.i.): 0.156 ± 0.014 %ID/g | blood uptake (Biodistribution in rats; 60 min p.i.): 0.287 ± 0.010 %ID/g | bone uptake (Biodistribution in rats; 60 min p.i.): 0.224 ± 0.015 %ID/g | brain uptake (Biodistribution in rats; 60 min p.i.): 0.149 ± 0.013 %ID/g | fat uptake (Biodistribution in rats; 60 min p.i.): 0.124 ± 0.011 %ID/g | kidney uptake (Biodistribution in rats; 60 min p.i.): 0.841 ± 0.087 %ID/g | liver uptake (Biodistribution in rats; 60 min p.i.): 1.80 ± 0.62 %ID/g | muscle uptake (Biodistribution in rats; 60 min p.i.): 0.134 ± 0.009 %ID/g | % peak 1 (radiometabolite, retention time ~3.5 min) (NHP plasma, 2 min p.i.): 0% | % peak 2 (radiometabolite, retention time ~7.5 min) (NHP plasma, 2 min p.i.): 0% | % parent (NHP plasma, 15 min p.i.): > 90% | % peak 1 (radiometabolite, retention time ~3.5 min) (NHP plasma, 15 min p.i.): 6% | % peak 2 (radiometabolite, retention time ~7.5 min) (NHP plasma, 15 min p.i.): 2% | % peak 1 (radiometabolite, retention time ~3.5 min) (NHP plasma, 30 min p.i.): 15% | % peak 2 (radiometabolite, retention time ~7.5 min) (NHP plasma, 30 min p.i.): 8% | % peak 1 (radiometabolite, retention time ~3.5 min) (NHP plasma, 60 min p.i.): 29% | % peak 2 (radiometabolite, retention time ~7.5 min) (NHP plasma, 60 min p.i.): 14% | % peak 1 (radiometabolite, retention time ~3.5 min) (NHP plasma, 90 min p.i.): 39% | % peak 2 (radiometabolite, retention time ~7.5 min) (NHP plasma, 90 min p.i.): 14% | radioactivity of arterial blood found in the plasma (plasma separated from packed red cells): 65–75%
Structure (SMILES): Cn1cc(-c2ccncc2)c(-c2ccc(OCc3nc4ccccc4cc3OCC[18F])cc2)n1 [[^18F]20a, 3-((2-Fluoro-^18F)ethoxy)-2-((4-(1-methyl-4-(pyridin-4-yl)-1H-pyrazol-3-yl)phenoxy)methyl)-quinoline]
in vivo metabolic defluorination (bone activity) (Biodistribution in rats; 5 to 60 min p.i.): appeared more stable to in vivo defluorination | ratios of uptake in the striatum vs nontarget brain regions (PDE10A [4]; cynomolgus macaque microPET, by 40 min p.i.): > 3 fold | target:nontarget ratios (PDE10A [4]; cynomolgus macaque microPET, by 70 min p.i.): > 5 fold | visualization of striatum in microPET (PDE10A [4]; cynomolgus macaque, summed images 0 to 180 min): clear visualization of the PDE10A-enriched striatum
